# Laboratory results taken from patent US10584122B2, “Solid forms of a compound modulating kinases” (Plexxikon Inc., priority 2015, dated 2020).
# Read-outs that look alike come from different tables or passages of the source.
# How the values were obtained:
# [1] = Physical stability, stress experiments (temperature/RH) with XRPD; assay type: physicochemical; details: for Physical stability (overall finding): at the conditions investigated, HCl salt
# physchem = details: water, thermodynamic from solid
# [2] = Dynamic vapor sorption/desorption (DVS); assay type: physicochemical; details: for Solid form after DVS, by XRPD: after sorption/desorption; for DVS weight loss upon equilibration: equilibration at 5% RH
# From the text: Moisture sorption/desorption data were collected on a VTI SGA-100 Vapor Sorption Analyzer under a nitrogen purge. […] Data were not corrected for the initial moisture content of the samples. Sodium chloride and polyvinypyrrolidine were used as calibration standards.
# [3] = Slurry experiment, form conversion by XRPD; assay type: physicochemical; details: slurried in ethanol for 21 days
# Experimental: Solutions were prepared by adding enough solids to a given solvent so that excess solids were present. The mixture was then agitated in a sealed vial at either ambient or a set temperature.
compound,measurement,setting,value
"Cl.FC(F)(F)c1ccc(CNc2ccc(Cc3c[nH]c4ncc(Cl)cc34)cn2)cn1 [Compound I Form A, [5-(5-chloro-1H-pyrrolo[2,3-b]pyridin-3-ylmethyl)-pyridin-2-yl]-(6-trifluoromethyl-pyridin-3-ylmethyl)-amine HCl salt]",XRPD Result (solid form after stress),[1]; 40° C./75% RH/14 d,A + C
same,XRPD Result (solid form after stress),[1]; 80° C./7 d (<<100 mg),converted to Form C
same,XRPD Result (solid form after stress),[1]; RT/85% RH/14 d,A + minor C
same,Physical stability (overall finding),[1]; listed as Form A,physically metastable
same,Form conversion on exposure to elevated humidity,[1]; elevated humidity,partial conversion to Form C
same,solubility,physchem,< 2 mg/mL
same,"DVS additional weight gain, sorption step",[2]; above 75% RH,1.7%
same,"Solid form after DVS, by XRPD","[2]; listed as Form A, HCl salt",Form A
same,"DVS weight gain, sorption step",[2]; from 5% to 75% RH,0.6%
same,Hygroscopicity (DVS isotherm),"[2]; listed as Form A, HCl salt",hygroscopic
same,Form conversion on slurry,[3],complete conversion to Form C
"CO.Cl.FC(F)(F)c1ccc(CNc2ccc(Cc3c[nH]c4ncc(Cl)cc34)cn2)cn1 [Compound I Form D, [5-(5-chloro-1H-pyrrolo[2,3-b]pyridin-3-ylmethyl)-pyridin-2-yl]-(6-trifluoromethyl-pyridin-3-ylmethyl)-amine HCl salt methanol solvate]",Form conversion on heating,[1]; 80° C. for 15 minutes,desolvated to Form A
same,Form conversion on heating,[1]; continued exposure to 80° C. for 2 days,converted to Form C
same,"DVS weight loss, desorption phase",[2]; desorption phase,0.9%
same,DVS weight loss upon equilibration,[2],approximately 5.3%
same,"DVS weight gain, sorption phase",[2]; sorption phase,0.9%
"FC(F)(F)c1ccc(CNc2ccc(Cc3c[nH]c4ncc(Cl)cc34)cn2)cn1 [Compound II, [5-(5-chloro-1H-pyrrolo[2,3-b]pyridin-3-ylmethyl)-pyridin-2-yl]-(6-trifluoromethyl-pyridin-3-ylmethyl)-amine]",Hygroscopicity (DVS isotherm),[2],hygroscopic
same,DVS weight loss upon equilibration,[2],0.3-0.4%
same,DVS weight gained,[2]; from 45% to 95% RH,~21.6%
"Cl.FC(F)(F)c1ccc(CNc2ccc(Cc3c[nH]c4ncc(Cl)cc34)cn2)cn1 [Compound I Form C, [5-(5-chloro-1H-pyrrolo[2,3-b]pyridin-3-ylmethyl)-pyridin-2-yl]-(6-trifluoromethyl-pyridin-3-ylmethyl)-amine HCl salt]",Physical stability (overall finding),[1]; listed as Form C,more physically stable than Form A
same,"Solid form after DVS, by XRPD","[2]; listed as Form C, HCl salt",remained unchanged
same,"DVS weight gain, sorption step",[2]; from 5% to 95% RH,0.96%
same,Hygroscopicity (DVS isotherm),"[2]; listed as Form C, HCl salt",less hygroscopic than Form A
"Cl.FC(F)(F)c1ccc(CNc2ccc(Cc3c[nH]c4ncc(Cl)cc34)cn2)cn1 [Compound I Form B, [5-(5-chloro-1H-pyrrolo[2,3-b]pyridin-3-ylmethyl)-pyridin-2-yl]-(6-trifluoromethyl-pyridin-3-ylmethyl)-amine HCl salt]",Form conversion on heating,[1]; about 150° C. for about 5 minutes,Desolvation/conversion to Form C
